Tests used:
[1] = Concentration required to inhibit DNA dependent RNA polymerase was determined from calf thymus
[2] = Concentration required to inhibit RNA dependent RNA polymerase was determined from polio virus
[3] = as above; remark: listed apart in the source

Row | SMILES | IC50 [1] | IC50 [2] | IC50 [3]
1 | Nc1ccc2[nH]cc(C[C@H](NC(=O)c3ccc4c(c3)nc(-c3ccoc3)n4C3CCCCC3)C(=O)O)c2c1 [(S)-3-(5-Amino-1H-indol-3-yl)-2-[(1-cyclohexyl-2-furan-3-yl-1H-benzoimidazole-5-carbonyl)-amino]-propionic acid] | > 250 µM | > 500 µM | –
2 | NC(=O)c1ccc2[nH]cc(C[C@H](NC(=O)c3ccc4c(c3)nc(-c3ccoc3)n4C3CCCCC3)C(=O)O)c2c1 [(S)-3-(5-Carbamoyl-1H-indol-3-yl)-2-[(1-cyclohexyl-2-furan-3-yl-1H-benzoimidazole-5-carbonyl)-amino]-propionic acid] | > 250 µM | – | > 200 µM
3 | O=C(O)C(=O)Nc1ccc2[nH]cc(C[C@H](NC(=O)c3ccc4c(c3)nc(-c3ccoc3)n4C3CCCCC3)C(=O)O)c2c1 [(S)-2-[(1-Cyclohexyl-2-furan-3-yl-1H-benzoimidazole-5-carbonyl)-amino]-3-[5-(oxalyl-amino)-1H-indol-3-yl]-propionic acid] | > 250 µM | > 250 µM | –
4 | O=C(N[C@@H](Cc1c[nH]c2ccc(-c3nnn[nH]3)cc12)C(=O)O)c1ccc2c(c1)nc(-c1ccoc1)n2C1CCCCC1 [(S)-2-[(1-Cyclohexyl-2-furan-3-yl-1H-benzoimidazole-5-carbonyl)-amino]-3-[5-(5H-tetrazol-5-yl)-1H-indol-3-yl]-propionic acid] | > 250 µM | > 200 µM | –
5 | O=C(O)COc1ccc2[nH]cc(C[C@H](NC(=O)c3ccc4c(c3)nc(-c3ccoc3)n4C3CCCCC3)C(=O)O)c2c1 [(S)-3-(5-(carboxymethoxy)-1H-indol-3-yl)-2-(1-cyclohexyl-2-(furan-3-yl)-1H-benzo[d]imidazole-5-carboxamido)propanoic acid] | > 200 µM | 100 µM | –
6 | CS(=O)(=O)Nc1ccc2[nH]cc(C[C@H](NC(=O)c3ccc4c(c3)nc(-c3ccoc3)n4C3CCCCC3)C(=O)O)c2c1 [(S)-2-[(1-Cyclohexyl-2-furan-3-yl-1H-benzoimidazole-5-carbonyl)-amino]-3-(5-methanesulfonylamino-1H-indol-3-yl)-propionic acid] | – | – | > 500 µM
7 | O=C(N[C@@H](Cc1c[nH]c2ccc(NS(=O)(=O)C(F)(F)F)cc12)C(=O)O)c1ccc2c(c1)nc(-c1ccoc1)n2C1CCCCC1 [(S)-2-[(1-Cyclohexyl-2-furan-3-yl-1H-benzoimidazole-5-carbonyl)-amino]-3-(5-trifluoromethanesulfonylamino-1H-indol-3-yl)-propionic acid] | > 250 µM | – | > 250 µM
8 | O=C(O)c1ccc2[nH]cc(C[C@H](NC(=O)c3ccc4c(c3)nc(-c3ccoc3)n4C3CCCCC3)C(=O)O)c2c1 [3-{(S)-2-Carboxy-2-[(1-cyclohexyl-2-furan-3-yl-1H-benzoimidazole-5-carbonyl)-amino]-ethyl}-1H-indole-5-carboxylic acid] | > 250 µM | – | > 200 µM
9 | O=C(N[C@@H](Cc1c[nH]c2ccc(O)cc12)C(=O)O)c1ccc2c(c1)nc(-c1ccoc1)n2C1CCCCC1 [(S)-2-[(1-Cyclohexyl-2-furan-3-yl-1H-benzoimidazole-5-carbonyl)-amino]-3-(5-hydroxy-1H-indol-3-yl)-propionic acid] | > 200 µM | 79 µM | –
10 | CC(C)(Oc1ccc2[nH]cc(C[C@H](NC(=O)c3ccc4c(c3)nc(-c3ccoc3)n4C3CCCCC3)C(=O)O)c2c1)C(=O)O [(S)-3-[5-(1-Carboxy-1-methyl-ethoxy)-1H-indol-3-yl]-2-[(1-cyclohexyl-2-furan-3-yl-1H-benzoimidazole-5-carbonyl)-amino]-propionic acid] | – | – | > 200 µM
11 | CC(=O)Nc1ccc2[nH]cc(C[C@H](NC(=O)c3ccc4c(c3)nc(-c3ccoc3)n4C3CCCCC3)C(=O)O)c2c1 [(S)-3-(5-Acetylamino-1H-indol-3-yl)-2-[(1-cyclohexyl-2-furan-3-yl-1H-benzoimidazole-5-carbonyl)-amino]-propionic acid] | > 250 µM | – | > 125 µM

Source: BindingDB's records for doi:10.1016/j.bmcl.2003.12.032 (Boehringer Ingelheim (Canada), 2004)
